The nature of series [1]: cytotoxicity toward NIH3T3 fibroblasts, dose response, counter-screen, cell-based, ATP luminescence, mouse fibroblasts (AID 2010).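 Further: cells exposed to compound for about 90 hours before reading.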 Type of series: functional.
A short description of series [2]: inhibitors of intracellular T. cruzi replication, confirmation, NIH3T3 host cells, beta-gal luminescence (AID 2044).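 Further: intracellular parasites grown in NIH/3T3 mouse fibroblasts as host cells; luminescent beta-galactosidase reporter signal from transgenic T. cruzi replicating inside host cells; inhibitors lower the luminescence signal.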 Type of series: functional, cell-based.
The target in a further series is Cytochrome P450 2D6 (Homo sapiens, UniProt P10635).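 Further: CYP2D6 member of a cytochrome P450 panel assay.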
The target in another series is Cytochrome P450 2C19 (Homo sapiens, UniProt P33261). Briefly: Cytochrome panel assay with activity outcomes. Panel member name: p450-cyp2c19 Compounds with AC50 equal or less than 10 uM are considered active. Type of series: functional.
A further series concerns the target T1, Cytochrome P450 1A2 (Homo sapiens, UniProt P05177).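 Further: PubChem cytochrome P450 panel assay, CYP1A2 panel member.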
T1 sequence (P05177 whole entry): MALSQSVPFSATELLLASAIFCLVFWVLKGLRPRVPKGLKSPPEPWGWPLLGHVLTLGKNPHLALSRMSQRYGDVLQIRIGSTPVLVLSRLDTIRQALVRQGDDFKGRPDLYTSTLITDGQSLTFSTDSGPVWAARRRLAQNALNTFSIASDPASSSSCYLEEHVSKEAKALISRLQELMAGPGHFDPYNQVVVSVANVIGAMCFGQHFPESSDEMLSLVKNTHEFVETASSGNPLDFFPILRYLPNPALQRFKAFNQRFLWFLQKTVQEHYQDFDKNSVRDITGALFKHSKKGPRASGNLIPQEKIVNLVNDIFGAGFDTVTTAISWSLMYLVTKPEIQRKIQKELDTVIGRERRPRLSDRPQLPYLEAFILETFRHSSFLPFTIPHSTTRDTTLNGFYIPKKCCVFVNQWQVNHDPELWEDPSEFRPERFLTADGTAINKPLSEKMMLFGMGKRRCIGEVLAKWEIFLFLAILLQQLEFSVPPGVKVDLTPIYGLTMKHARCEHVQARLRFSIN

Series [3] in a line: inhibitors of SNCA 5'UTR-driven reporter translation, confirmation, H4 neuroglioma cells, luminescence (AID 1988). Type of series: functional, cell-based.
Series [4] in a line: Luminescence Cell-Based Dose Response HTS to Identify Inhibitors of 5'UTR Stem-Loop Driven Prion Protein mRNA Translation in H4 Neuroglioblastoma Cells. [Related pubchem assays: 1827 (Project Summary), 1813 (Primary HTS)]. It is filed as functional.
The nature of series [5]: inhibitors of firefly luciferase expression or activity, dose response, H4 neuroglioma cells, luminescence (AID 1990). It is filed as functional, cell-based.
The test system of series [6] is Streptococcus sp. 'group A'. As to the kind of experiment: growth inhibition of control SK(-) GAS strain, dose response, counter-screen for streptokinase expression inhibitor project, luminescence, kanamycin, BacTiterGlo, confirmation (AID 1900). Type of series: functional, organism-based.
Another series deals with Streptococcus. Briefly: Group A Streptococcus viability loss, dose response, counter-screen for streptokinase expression inhibitor project, luminescence, BacTiterGlo (AID 1915).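 Further: potency for reduction of bacterial viability or growth.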 Type of series: functional, organism-based.

Calls of active or inactive are those of the source.

One may read the EC50 as the concentration at which the effect is half-maximal. The term AC50 denotes the concentration giving half of the maximal activity seen.

Cytochrome P450 2D6, sequence (P10635 whole entry): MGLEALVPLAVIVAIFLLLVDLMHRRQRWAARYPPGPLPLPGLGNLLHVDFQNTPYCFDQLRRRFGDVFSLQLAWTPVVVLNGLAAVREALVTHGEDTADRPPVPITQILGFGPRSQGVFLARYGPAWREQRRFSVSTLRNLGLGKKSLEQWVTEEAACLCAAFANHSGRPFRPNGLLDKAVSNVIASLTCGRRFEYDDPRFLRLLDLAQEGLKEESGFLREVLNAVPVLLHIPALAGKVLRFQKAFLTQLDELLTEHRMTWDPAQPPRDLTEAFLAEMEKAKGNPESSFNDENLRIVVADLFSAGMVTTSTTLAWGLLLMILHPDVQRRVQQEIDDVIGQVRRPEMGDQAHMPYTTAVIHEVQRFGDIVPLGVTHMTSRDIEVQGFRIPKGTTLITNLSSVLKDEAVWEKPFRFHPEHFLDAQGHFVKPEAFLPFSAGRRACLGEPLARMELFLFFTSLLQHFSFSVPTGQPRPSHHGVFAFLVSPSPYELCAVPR
Cytochrome P450 2C19, sequence (P33261 whole entry): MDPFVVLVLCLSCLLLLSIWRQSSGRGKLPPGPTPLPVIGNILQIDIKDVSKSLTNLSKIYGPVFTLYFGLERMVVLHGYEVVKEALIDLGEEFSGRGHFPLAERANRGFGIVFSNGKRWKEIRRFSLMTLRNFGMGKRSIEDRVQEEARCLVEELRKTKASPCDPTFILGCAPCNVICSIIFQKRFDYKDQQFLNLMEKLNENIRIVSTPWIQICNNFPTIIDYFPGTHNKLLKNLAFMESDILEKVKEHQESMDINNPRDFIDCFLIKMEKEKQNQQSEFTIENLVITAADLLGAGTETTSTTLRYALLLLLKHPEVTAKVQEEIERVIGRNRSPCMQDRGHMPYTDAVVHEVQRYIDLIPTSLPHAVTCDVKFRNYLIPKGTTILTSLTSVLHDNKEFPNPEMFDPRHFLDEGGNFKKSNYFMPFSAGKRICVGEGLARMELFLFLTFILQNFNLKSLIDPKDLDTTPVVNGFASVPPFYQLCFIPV

Take `O=C(CSc1ncnc2c1nnn2Cc1ccc(F)cc1)NC1CCCCC1`: the values for the EC50 in [1] and in [2] were > 60 µM (not active) and 4.08 µM (active), respectively. Take `O=C(NC1CCCCCC1)c1cccs1`: the results for the AC50 on Cytochrome P450 2D6 and at Cytochrome P450 2C19 (read-out: AC50) were 12.6 µM (inconclusive) and 3.98 µM (inconclusive), respectively.

Turning to `COc1cccc(Cn2c(=O)c(C)nc3cnc(OCc4ccccc4)nc32)c1`, the half-maximal activity concentration (AC50) on Cytochrome P450 2D6 was 20 µM (inconclusive).

Consider `O=C(c1c[nH]c(C(=O)N2CCN(c3ccccc3F)CC2)c1)c1cccc(Cl)c1Cl`, for which the figures for the EC50 in [1] and in series [2] were 2.1 µM (active) and 2.69 µM (active), respectively. As to `COc1ccc(C)cc1NC(=O)CSc1nnc(-c2ccc(OC)c(OC)c2)n1N`, the results for the half-maximal activity concentration (AC50) on Cytochrome P450 2C19 (read-out: AC50) and on Cytochrome P450 1A2 were 28.2 µM (inconclusive) and 11.2 µM (inconclusive), respectively.

For `CC(C)CN(C(=O)COC(=O)c1c(Cl)ccc(Cl)c1Cl)C1CCS(=O)(=O)C1` (stereo not given), the EC50 in [3], in [4] and in series [5] was > 120 µM (not active) throughout. As to `O=C(NCC1CCCO1)/C(=C\c1ccco1)NC(=O)c1ccccc1` (stereo not given), the concentration at half-maximal activity (AC50) at Cytochrome P450 1A2 was 14.1 µM (inconclusive).

For the compound `Cc1sc2ncn(CC(=O)NCCCC(=O)N3CCN(c4ncccn4)CC3)c(=O)c2c1C`, the half-maximal activity concentration (AC50) on Cytochrome P450 2C19 (read-out: AC50) was 25.1 µM (inconclusive). As to `COc1ccccc1NS(=O)(=O)c1cccc(C(=O)N/N=C/c2cn(-c3ccccc3)nc2-c2ccccc2)c1`, the EC50 in series [3], in series [4] and in series [5] was > 120 µM (not active) in each case. `O=c1cnc2cnc(OCc3ccccc3)nc2n1Cc1ccc(F)cc1`: the AC50 is 39.8 µM (inconclusive) on Cytochrome P450 2D6 and 25.1 µM (inconclusive) on Cytochrome P450 2C19 (read-out: AC50). Take `OCC1(CCCc2ccccc2)CCN(Cc2cnc(N3CCOCC3)s2)CC1`: the values for the 50% effective concentration (EC50) in series [1] and in [2] were > 60 µM (not active) and 1.2 µM (active), respectively. `O=C(NNC(=S)NC(=O)c1cccc([N+](=O)[O-])c1)c1ccc(Br)cc1`: the 50% effective concentration (EC50) in [6] was 1.14 µM (active); in the series with Streptococcus it was 6.56 µM (active). Consider `COc1cc(O)nc(SCc2c(F)c(F)c(F)c(F)c2F)n1`, for which the figures for the EC50 in [3], in [4] and in series [5] were 66.4 µM (active), 13.9 µM (active) and > 120 µM (not active), respectively. Regarding `Oc1c[n+](CCCC[n+]2cc(O)on2)no1`, at Cytochrome P450 2C19, the AC50 result was “inconclusive”.

As for `N#CC(C#N)=CNCCN1CCN(C=C(C#N)C#N)CC1`, the AC50 entry on Cytochrome P450 2C19 is listed as “inconclusive”. Turning to `Cc1cc(C)c[n+](CC(=O)c2cc3ccccc3oc2=O)c1`, the AC50 on Cytochrome P450 2D6 is 11.2 µM (inconclusive); at Cytochrome P450 1A2 it was 22.4 µM (inconclusive). Consider `O=C(Nc1ccccc1)N(Cc1ccccc1)CC(O)C(F)(F)F` (stereo not given), for which the AC50 on Cytochrome P450 1A2 was 17.8 µM (inconclusive).

On to `COc1ccc(CNc2ncnc3ccc(-c4cccnc4)cc23)c(OC)c1`, for which the half-maximal activity concentration (AC50) on Cytochrome P450 2C19 (read-out: AC50) is 31.6 µM (inconclusive). Regarding `CN(C(=O)CSc1nc(O)c(C#N)c(-c2ccc(C(C)(C)C)cc2)n1)C1CCCCC1`, the EC50 with Streptococcus is 20.3 µM (active). Turning to `O=C(Nc1ccc([N+](=O)[O-])cc1)C(Cc1ccccc1)N1C(=O)c2cccc3cccc(c23)C1=O` (stereo not given), the half-maximal effective concentration (EC50) in series [3], in series [4] and in series [5] was > 120 µM (not active) in each case. For `OC[C@@H]1O[C@H](n2cnc3c(/C=C(\O)c4ccccc4)ncnc32)[C@H](O)[C@@H]1O`, the AC50 on Cytochrome P450 1A2 was 0.501 µM (inconclusive). With `NC(=O)c1cccc(N)c1` [3-AMINOBENZAMIDE], the results for the half-maximal activity concentration (AC50) at Cytochrome P450 2D6 and at Cytochrome P450 1A2 were 20 µM (inconclusive) and 39.8 µM (inconclusive), respectively. On to `CN(Cc1ccco1)c1ccnc(-c2ccccc2C(F)(F)F)n1`, for which, on Cytochrome P450 2D6, the AC50 is 25.1 µM (inconclusive).

In the case of `O=C(CN1C2=NCCCN2c2ccccc21)c1ccc([N+](=O)[O-])cc1`, the EC50 in series [1] is > 60 µM (not active); in series [2] it was 0.436 µM (active).

In the case of `O=C(Nc1nc2c(F)cc(F)cc2s1)C1CC1`, the EC50 is > 60 µM (not active) in [1] and 0.305 µM (active) in [2].

`N=c1c2c(-c3ccccc3)c(-c3ccccc3)n(Cc3ccco3)c2ncn1CCCO`: the EC50 in series [1] was 11.3 µM (active); in series [2], 1.33 µM (active). Consider `CC(C)n1c2ccccc2c2cc([N+](=O)[O-])ccc21`, for which the EC50 is 34.3 µM (active) in series [3], > 120 µM (not active) in series [4] and 14.8 µM (active) in [5]. For the compound `CCOC(=O)c1c(NC(=O)CN2CCCCC2)sc(CN(C)C)c1-c1ccccc1`, the EC50 was > 30 µM (not active) in series [1] and 1.11 µM (active) in series [2].

Consider `Cc1cc(C)c(S(=O)(=O)Nc2ccccc2C(F)(F)F)c(C)c1`, for which the concentration at half-maximal activity (AC50) on Cytochrome P450 1A2 is 31.6 µM (inconclusive). `COc1ccc(CC(=O)NCCN2CCCC2)cc1`: at Cytochrome P450 2D6, the half-maximal activity concentration (AC50) is 28.2 µM (inconclusive).

As to `CSc1cccc(NC(=S)N(Cc2ccc(C)cc2)Cc2ccccn2)c1`, the EC50 in series [1] was > 60 µM (not active); in [2], 0.483 µM (active). In the case of `Cc1ccccc1Cn1cnc2c(cnn2C(C)(C)C)c1=O`, the AC50 on Cytochrome P450 2D6 is 35.5 µM (inconclusive). Turning to `CCOC(=O)c1[nH]c(Cc2[nH]c(C(=O)OCC)c(C)c2CCC(=O)OC)c(CCC(=O)OC)c1C`, the EC50 is 12.1 µM (active) in [3], 21.2 µM (active) in series [4] and > 120 µM (not active) in series [5]. With `O=C(Cn1cc(C(F)(F)F)ccc1=O)N/N=C/c1cccc(Cl)c1Cl`, the EC50 in [3], in series [4] and in series [5] was > 120 µM (not active) throughout. Turning to `CO[C@@H]1COC(=O)[C@H]2CCCN2C(=O)[C@@H](C)COC(=O)CCC[C@H]1C`, the AC50 result at Cytochrome P450 2C19 is “inconclusive”.

On to `Cc1cc(C)c(S(=O)(=O)c2ccccc2C)c(Cl)n1`, for which the EC50 in series [1] is > 60 µM (not active); in series [2], 2.05 µM (active). Consider `Cc1ccc(-n2ncc3c2ncn2nc(-c4ccco4)nc32)c(C)c1`, for which the AC50 on Cytochrome P450 2C19 (read-out: AC50) is 17.8 µM (inconclusive). For the compound `CCc1nnc(NC(=O)CCC(=O)NCc2ccccc2OC)s1`, on Cytochrome P450 2D6, the AC50 is 17.8 µM (inconclusive). Regarding `CN(C)C(=O)c1ccc(-c2nc(N(C)Cc3ccco3)c3ccccc3n2)cc1`, the AC50 is 39.8 µM (inconclusive) at Cytochrome P450 2D6 and 31.6 µM (inconclusive) on Cytochrome P450 2C19 (read-out: AC50). `Cc1oc(-c2ccccc2F)nc1CS(=O)(=O)CC(=O)NCCCN(C)C1CCCCC1`: the half-maximal activity concentration (AC50) at Cytochrome P450 2D6 was 15.8 µM (inconclusive). Turning to `CCC(=O)Nc1nc2ccc([N+](=O)[O-])cc2s1`, the half-maximal effective concentration (EC50) was > 60 µM (not active) in series [1] and 0.241 µM (active) in [2]. Take `Cc1nc(SCC(=O)Nc2c(C)nn(C)c2C)c2cnn(-c3ccccc3)c2n1`: on Cytochrome P450 2C19 (read-out: AC50), the half-maximal activity concentration (AC50) was 28.2 µM (inconclusive).

Take `COc1ccccc1C(=O)C1CCCN(Cc2ccc(Oc3ncccn3)cc2)C1` (stereo not given): the EC50 is > 60 µM (not active) in [1] and 0.178 µM (active) in series [2]. Turning to `CCOc1ccccc1NC(=O)c1cc(-c2ccncc2)nc2c(Cl)cccc12`, the EC50 in series [1] was 21.2 µM (active); in series [2], 1.97 µM (active).

Turning to `COc1ccc(NC(=O)CC2C(=O)N(CCc3ccccc3)C(=S)N2Cc2cccnc2)cc1` (stereo not given), the EC50 is > 60 µM (inconclusive) in [1] and 2.03 µM (active) in series [2]. `CCCCSc1nnc(-c2ccc(C)cc2)n1C`: the half-maximal activity concentration (AC50) at Cytochrome P450 1A2 was 28.2 µM (inconclusive).

`O=C(NC(Cc1c[nH]c2ccccc12)c1nnc2n1CCCCC2)c1ccccc1` (stereo not given): the AC50 at Cytochrome P450 2C19 (read-out: AC50) was 17.8 µM (inconclusive). With `O=C(N/N=C/c1cc2c(cc1Br)OCO2)c1c[nH]c2ccccc12`, the EC50 is > 60 µM (inconclusive) in [1] and 2.52 µM (active) in series [2]. The like results for `CCN1CCN(c2nc(-c3ccncc3)nc3ccccc23)CC1` were, in that order, > 60 µM (not active) and 1.23 µM (active).

Take `CC(C)c1cc(CN(C)C)c(O)c(C(C)(C)C)c1`: on Cytochrome P450 2D6, the concentration at half-maximal activity (AC50) was 6.31 µM (inconclusive). Regarding `CN(C)c1ccc(-c2ccc3ncnc(N(C)Cc4ccco4)c3c2)cc1`, the AC50 on Cytochrome P450 2D6 was 25.1 µM (inconclusive). Take `CCCCN(C)CCCNC(=O)c1ccc(N2CCCC2=O)cc1`: the AC50 on Cytochrome P450 1A2 was 0.126 µM (inconclusive). Take `C[C@H](N)c1cccc(Cl)c1Cl`: at Cytochrome P450 2D6, the half-maximal activity concentration (AC50) is 31.6 µM (inconclusive). `Cn1c(=O)c2nc(CSCc3ccccc3)[nH]c2n(C)c1=O`: the half-maximal activity concentration (AC50) entry at Cytochrome P450 2C19 is given as “inconclusive”.
